The text below walks through data of US10294271B1, “Compound, composition, and method for detecting caspase activity and/or apoptosis” (Vanderbilt University, priority 2013, dated 2019).

The test system of one data set is SW620 cells. Description: In vitro drug exposure, immunoblot of cleaved PARP and cleaved caspase-3, SW620 cells. The class given is cell-based, human. The following applies: 24 h, 0-5000 nM. The procedure: (§1) For cell cycle analysis, SW620 and DLD-1 cells were propagated to 50% confluency in 6 cm plates and treated with AZD-1152-hydroxyquinazoline pyrazol anilide (HQPA) (Selleckchem), 0, 10, 100, 1000, or 5000 nM, for 24 or 48 hrs and prepared for flow cytometry as described (2). Propidium iodide (PI)-stained cells were analyzed by flow cytometry (FACStar PLUS, Becton-Dickinson). Data analysis was performed using CellQuest software (Becton-Dickinson) by manually gating to define and quantify sub-G0, G1, S, G2/M, and polyploidy populations. For assay of apoptosis following in vitro AZD-1152-HQPA exposure, SW620 and DLD-1 cells were seeded as sub-confluent monolayer cultures at a density of 1×10^4 per well into 96-well, black wall/bottom plates (BD Biosciences), allowed to adhere for 24 h, and treated with AZD-1152-HQPA, 0, 10, 50, 75, 100, or 1,000 nM, for 24 hrs. Apoptosis was assessed using the Caspase-Glo 3/7 reagent, in accordance with manufacturer's instructions, and analyzed using a Synergy 4 plate reader.
(§2) After 24 h of drug exposure, in vitro cell samples were collected from 10-cm plates. Medium was removed and cell monolayers washed with 1× phosphate buffered saline (PBS) followed by addition of […] of lysis buffer containing: 7 mL of CelLytic M lysis buffer (Sigma), mini protease inhibitor cocktail (Roche), and […] of phosphatase inhibitor cocktail 1 and 2 (Sigma). […]
(A western blot detects proteins with antibodies after separation by electrophoresis.)

In another data set the test system is DLD-1 cells. Description: In vitro drug exposure, immunoblot of cleaved PARP and cleaved caspase-3, DLD-1 cells. The class given is cell-based, human. To be noted: 24 h, 0-5000 nM. The procedure:
as §1, §2

The test system of the next data set is SW620 xenografts. Description: Cleaved caspase-3 immunohistochemistry, SW620 xenografts. The class given is in vivo, athymic nude mice. To be noted: after imaging Day 5. The method, then:
Dual xenograft-bearing mice were sequentially injected with 1×10^7 SW620 and 5×10^6 DLD-1 human CRC cells subcutaneously onto the left or right hind limbs (respectively) of 5- to 6-week old female, athymic nude mice (Harlan Sprague-Dawley). Palpable tumors were observed 2-3 weeks following inoculation. Animals bearing SW620 and DLD-1 xenograft tumors were treated with vehicle or AZD-1152 (25 mg/kg, DMSO) via intraperitoneal injection once daily for five days, analogous to previous work. In vivo PET imaging studies were performed on Day 5, approximately 4-6 h after treatment. Tumor tissues were harvested immediately following conclusion of imaging, fixed for 24 h in 5% buffered formalin, and blocked in paraffin. Immunohistochemistry for cleaved caspase-3 (Cell Signaling, #9664) was carried out as previously described. Tissues were stained using standard H&E methods and reviewed by an expert gastrointestinal pathologist (M. Kay Washington). […] Semi-quantitative IHC analysis was performed using the image processing software ImageJ and is further described below. For semi-quantitative analysis of cleaved caspase-3 IHC, the public domain image processing software ImageJ was used to selectively measure the area of positive staining of each cohort through manual threshold manipulation of hue, pixel saturation, and brightness. […]

Data set [1] can be described thus: Lipophilicity (log P7.5) by reversed phase HPLC. The class given is physicochemical. To be noted: for log P7.5: reversed phase HPLC, phosphate buffer pH 7.5, standard curve. The method, then:
[^19F]FB-VAD-FMK and [^127I]IZ-VAD-FMK were synthesized as described below. VAD-FMK (American Peptide) and Z-VAD-FMK (TOCRIS Bioscience, #2163) were obtained commercially and used without further purification. Relative enzyme selectivity of [^19F]FB-VAD-FMK compared to parent peptide was evaluated as described below. Lipophilicity measurements (Log P7.5) of peptide derivatives were determined analogously to reported methods and described below.
Lipophilicity characterization of compounds (3) and (5), as well as Z-VAD-FMK, was performed through log P7.5 quantification using methodology analogous to those previously reported (1). Using reversed phase HPLC (Phenomenex Luna C18, 5 μm, 100 Å, 4.6×250 mm) and a (85:15) phosphate buffer (2 mM, pH 7.5) isocratic system (1 mL/min), log P7.5 values were calculated using an average of compound retention times from three individual runs and standard curve derived linear regression. The following standards with known log P values were used for curve development: catechol, aniline, benzene, bromobenze, toluene, ethylbenzene, 2-chlorobiphenyl, biphenyl, 1-chloronaphthalene, 1,2,3-trimethylbenzene, 1,2,3,4-tetrachlorobenzene, 1,2,4,5-tetrabromobenzene, and pentachlorobenzene.

In data set [2] the test system is caspase-3/7 activity in DiFi cells. Description: Cellular caspase inhibition assay (Caspase-Glo 3/7). The class given is cell-based. The procedure:
DiFi cells were propagated in Dulbecco's Modified Eagle's Medium (DMEM, Mediatech) and supplemented with 10% fetal bovine serum (Atlanta Biologicals) and 1 mg/mL gentamycin sulfate (Gibco) in a 95% humidity, 5% CO2, 37° C. atmosphere. Cells were seeded as sub-confluent monolayer cultures at a density of 1×10^4 per well into 96-well, black wall/bottom plates (BD Biosciences) and allowed to adhere for 24 h at 37° C. […] Cell media was then replaced with 1×PBS containing inhibitor (0, 10, 100, 1000, 10000 nM) and incubated at 37° C. for 30 min Inhibition was assessed using Caspase-Glo 3/7 reagent in accordance with the manufacturer's instructions. Luminescence was quantified using a Synergy 4 plate reader.

The next data set concerns the target T1, caspase-3 (Homo sapiens, UniProt P42574).
T1 construct: purchased BPS Bioscience
T1 sequence (P42574 29-175 limits assumed): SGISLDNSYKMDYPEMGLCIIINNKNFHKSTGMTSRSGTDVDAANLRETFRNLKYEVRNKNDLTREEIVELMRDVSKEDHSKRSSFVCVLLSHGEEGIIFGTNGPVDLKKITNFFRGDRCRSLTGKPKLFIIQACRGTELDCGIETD
T1 sequence (P42574 176-277 limits assumed): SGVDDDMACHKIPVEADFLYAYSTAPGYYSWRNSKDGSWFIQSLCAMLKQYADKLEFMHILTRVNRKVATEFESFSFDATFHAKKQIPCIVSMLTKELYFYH
In words: Enzyme selectivity assay, caspase-3. The class given is biochemical. To be noted: fluorescence assay kit, 0.0003-10 μM. The method, then: (§3) Relative enzyme inhibition of [^19F]FB-VAD-FMK was evaluated against caspase-3/6/7/8 using homogeneous caspase fluorescence assay kits (BPS Bioscience) and compared to parent peptide. Caspase inhibitor dissolved in caspase assay buffer and 1% DMSO (0.0003-10 μM) was combined with the caspase assay substrate and enzyme at room temperature for 30 min in accordance with the manufacturer's instructions. Fluorescence intensity was measured at an excitation of 360 nm and an emission of 460 nm using an Infinite M1000 microplate reader (Tecan).

The target of a further data set is T2, caspase-6 (Homo sapiens, UniProt P55212).
T2 construct: purchased BPS Bioscience
T2 sequence (P55212 24-179 limits assumed): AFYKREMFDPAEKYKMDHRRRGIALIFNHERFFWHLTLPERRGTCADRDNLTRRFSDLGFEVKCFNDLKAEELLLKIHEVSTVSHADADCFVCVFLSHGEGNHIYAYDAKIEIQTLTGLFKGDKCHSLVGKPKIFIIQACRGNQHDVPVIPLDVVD
T2 sequence (P55212 194-293 limits assumed): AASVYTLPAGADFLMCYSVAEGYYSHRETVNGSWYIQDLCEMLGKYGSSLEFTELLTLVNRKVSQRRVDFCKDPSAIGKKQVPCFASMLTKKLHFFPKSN
Description: Enzyme selectivity assay, caspase-6. The class given is biochemical. The following applies: fluorescence assay kit, 0.0003-10 μM. The procedure: as §3

The target of another data set is T3, caspase-7 (Homo sapiens, UniProt P55210).
T3 construct: purchased BPS Bioscience
T3 sequence (P55210 24-198 limits assumed): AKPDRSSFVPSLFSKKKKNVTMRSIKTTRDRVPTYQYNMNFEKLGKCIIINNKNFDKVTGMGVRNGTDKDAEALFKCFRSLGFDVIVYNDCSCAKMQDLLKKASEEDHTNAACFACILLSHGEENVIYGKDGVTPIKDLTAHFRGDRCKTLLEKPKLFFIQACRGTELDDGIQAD
T3 sequence (P55210 207-303 limits assumed): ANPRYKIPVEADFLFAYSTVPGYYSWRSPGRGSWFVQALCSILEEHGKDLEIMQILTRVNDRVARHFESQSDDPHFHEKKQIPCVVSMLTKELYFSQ
Description: Enzyme selectivity assay, caspase-7. To be noted: fluorescence assay kit, 0.0003-10 μM. The class given is biochemical. The method, then: as §3

For another data set, the target named is T4, caspase-8 (Homo sapiens, UniProt Q14790).
T4 construct: purchased BPS Bioscience
T4 sequence (Q14790 217-374 limits assumed): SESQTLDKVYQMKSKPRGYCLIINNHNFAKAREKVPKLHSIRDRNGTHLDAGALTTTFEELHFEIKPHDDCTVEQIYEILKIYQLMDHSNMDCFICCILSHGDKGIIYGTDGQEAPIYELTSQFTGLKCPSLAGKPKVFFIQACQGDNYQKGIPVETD
T4 sequence (Q14790 385-479 limits assumed): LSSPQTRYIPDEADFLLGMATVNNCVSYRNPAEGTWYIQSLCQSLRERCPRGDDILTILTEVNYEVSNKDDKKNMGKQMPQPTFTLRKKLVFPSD
In words: Enzyme selectivity assay, caspase-8. The class given is biochemical. To be noted: fluorescence assay kit, 0.0003-10 μM; compared with caspases-3/6/7. The method, then: as §3

Details of data set [3]: species or system male C57BL/6 mice. To be noted: mouse, in vivo, iv. The method, then:
Studies involving animals were conducted in accordance with federal and institutional guidelines. Biodistribution studies were performed using male C57BL/6 mice. A detailed description of in vitro drug response studies that support the subsequently described animal models and drug therapies is provided below. For all imaging studies, mice were maintained under 2% isofluorane anesthesia in 100% oxygen at 2 L/min and kept warm via a circulating water heating pad for the duration of the PET scan. Small-animal PET imaging was performed using a dedicated Concorde Microsystems Focus 220 microPET scanner (Siemens Preclinical Solutions). Animals were administered 7.4-9.3 MBq of [^18F]FB-VAD-FMK via intravenous injection. Both static and dynamic data sets were acquired. For static scans, animals were allowed free access to food and water during a 20-40 minute uptake period, followed by anesthetization and a 20-minute image acquisition. Analogously, sixty minute dynamic acquisitions for all xenografts were initiated at the time of [^18F]FB-VAD-FMK injection. Radiochemical preparation of [^18F]FB-VAD-FMK (Fig. S3) was performed as described above. The in vivo biodistribution of [^18F]FB-VAD-FMK was evaluated by ex vivo tissue counting at 60 min post-administration and correlative PET imaging up to 75 min post-administration.

For data set [4] the following is noted: in vivo.

Turning to `CCN(CCO)CCCOc1ccc2c(Nc3cc(CC(=O)Nc4cccc(F)c4)[nH]n3)ncnc2c1` [AZD-1152-HQPA, AZD-1152-hydroxyquinazoline pyrazol anilide], the “cleaved PARP and cleaved caspase-3 levels” value with SW620 cells and in the data set with DLD-1 cells was “concentration-dependent increases” each time.

On to `CCN(CCCOc1ccc2c(Nc3cc(CC(=O)Nc4cccc(F)c4)n[nH]3)ncnc2c1)CCOP(=O)(O)O` [AZD-1152], for which the “caspase-3 immunoreactivity compared to vehicle” value in the data set on SW620 xenografts was “elevated caspase-3 immunoreactivity”.

In the case of `COC(=O)C[C@H](NC(=O)[C@H](C)NC(=O)[C@@H](NC(=O)c1ccc(F)cc1)C(C)C)C(=O)CF` [[^19F]FB-VAD-FMK], in [1] (from log P7.5 values), the “times less lipophilic than Z-VAD-FMK and [^127I]IZ-VAD-FMK” value is 50-100 times. In addition, the “log P7.5” value in data set [1] is given as 1.41. Besides, the “inhibition of caspase-3/7 activity” value in [2] (DiFi cells in log-phase growth (untreated)) is listed as “nanomolar concentrations”; in data set [2] (DiFi cells, apoptosis induced by cetuximab 0.5 μg/mL 24 h), “comparable efficacy to the parent peptide”. Moreover, the “inhibition potency, caspase-3” value against caspase-3 is “single micro molar potency”. In addition, the “inhibition potency, caspase-6” value at caspase-6 is recorded as “single micro molar potency”. The “inhibition potency, caspase-7” value at caspase-7 is recorded as “single micro molar potency”. Also, at caspase-8, the “inhibition potency, caspase-8” value is “slightly greater potency”.

As to “Val-Ala-Asp(OMe)-fluoromethylketone [VAD-FMK, American Peptide, reference compound]”, the “inhibition potency, caspase-3” value at caspase-3 is recorded as “single micro molar potency”. Besides, the “inhibition potency, caspase-6” value against caspase-6 was “single micro molar potency”. Moreover, the “inhibition potency, caspase-7” value at caspase-7 is “single micro molar potency”. Further, the “inhibition potency, caspase-8” value against caspase-8 is “slightly greater potency”.

Regarding “[^18F]4-fluorobenzylcarbonyl-Val-Ala-Asp(OMe)-fluoromethylketone [[^18F]FB-VAD-FMK]”, in data set [3], the “radioactivity in brain, lung, or bone” value is “Very little radioactivity”; the “tissue activity in kidneys and liver” value is “greatest activity”. Moreover, the “parent compound in bile and urine samples” value in [4] is on record as ≥ 50%.

For the compound “[^127I]4-iodobenzyloxycarbonyl-Val-Ala-Asp(OMe)-fluoromethylketone [[^127I]IZ-VAD-FMK]”, the “log P7.5” value in data set [1] was determined as 2.38.

For “benzyloxycarbonyl-Val-Ala-Asp(OMe)-fluoromethylketone [Z-VAD-FMK, obtained commercially (TOCRIS Bioscience, #2163), reference compound]”, the “log P7.5” value in data set [1] was 2.20.
